Experimental data as given in patent US7351294B2, “Surface cleaner” (Reckitt Benckiser (UK) Limited, priority 1999, dated 2008).

Key:
[1] = cited from earlier work
[2] = Activity test: decolourisation of target dye gentian violet by sensitised TiO2 sol on an overhead projector, followed by UV/Visible spectrum
Procedure: A mixture of TiO2 sol (1 ml, 1 g/L) and tris(2,2′-dipyridyl4,4′-dicarboxylate)ruthenium(II)(dichloride) (4 ml, c=3.4×10^−5M) was stirred for about 1 minute using a rotamixer. The pH was recorded then the target dye gentian violet (GV dissolved in 20% ethanol solution, 0.05 ml or 0.08 ml, 0.03 wt/v %) was added and the mixture was stirred again. The initial colour of the sensitised TiO2 sol was yellow. Addition of gentian violet produced a purple colour at pH 3 and higher. A UV/Visible spectrum was taken at this stage. The vial containing the mixture was placed onto an overhead projector (2 cm height from the glass, in order to reduce heat). A UV/Visible spectrum was used to observe the colour change over a period of time at lamda max of the Target dye (Gentian violet or crystal violet)=588 nm in the white light spectrum. (OHP used: Model Ensign. Lamp:24V-250 W-3860 lux)
In order to get quantitative data a UV/Visible spectrum was taken at different times. […]

[3] = acid conditions (pH 3); cited from earlier work

Molecule	Sensitising properties ([1]; pH 7 compared with lower pH)	Decolourisation on repeated addition of gentian violet (0.08 ml) ([2]; Example 19, with TiO2 sol (5 ml, 10 g/L), slower rate than on the first addition)	Activity with other light sources versus overhead projector ([2]; with TiO2 sol, daylight bulbs 40 W and 100 W, tungsten filament 35 W and 100 W, fluorescent tube 8 W)	Activity in sensitised photocatalytic oxidation of herbicides [3]	Sensitising agent for charge injection into titania ([1]; acid pH, compared to tris(2,2′-bipridyl)ruthenium (II) dichloride)
[Cl-].[Cl-].[Ru+2].c1ccc(-c2ccccn2)nc1.c1ccc(-c2ccccn2)nc1.c1ccc(-c2ccccn2)nc1 [tris(2,2′-bipridyl)ruthenium (II) dichloride, reference compound]	improve				
tris(2,2′-bipyridyl-4,4′-dicarboxylate)ruthenium (II) dichloride		still decolourising on the third addition	still works with all light sources tried albeit much slower	active	superior
